Values of other authors as cited in US6395309B1, “Use of an extract of Alchemilla vulgaris to inhibit angiogenesis” (Weber & Weber GmbH & Co. KG, priority 1998, dated 2002).

Assays:
[1] = clinically tested

Compound | histamine release from mast cells (mast cells) | toxic effects on clinical testing [1]
O=c1c(O)c(-c2ccc(O)cc2)oc2cc(O)cc(O)c12 [Campherol] | inhibits histamine release | –
Cc1ccc(C(=O)Nc2ccc(S(=O)(=O)O)c3cc(S(=O)(=O)O)cc(S(=O)(=O)O)c23)cc1NC(=O)c1cccc(NC(=O)Nc2cccc(C(=O)Nc3cc(C(=O)Nc4ccc(S(=O)(=O)O)c5cc(S(=O)(=O)O)cc(S(=O)(=O)O)c45)ccc3C)c2)c1 [Sumarin] | – | therapeutic use is questionable because of toxic effects
